Measured values taken from article PMC5218480 (PLoS ONE, 2017).

Tested on: MV-4-11 cells
Assay: Gene expression microarray analysis (Affymetrix PrimeView) and GSEA
Format: cell-based, human
Design: RFU PODN (11730768_x_at) / Fold change /veh PODN (11730768_x_at) / RFU LINC00158 (11744669_a_at) / Fold change /veh LINC00158 (11744669_a_at) / RFU DUSP10 (11751237_a_at) / Fold change /veh DUSP10 (11751237_a_at) / RFU ID3 (11757404_x_at) / Fold change /veh ID3 (11757404_x_at) / RFU PLEKHG5 (11737974_s_at) / Fold change /veh PLEKHG5 (11737974_s_at) / RFU LRRC4B (11730491_at) / Fold change /veh LRRC4B (11730491_at) / RFU GIMAP4 (11747438_a_at) / Fold change /veh GIMAP4 (11747438_a_at) / RFU KRT8 (11758183_x_at) / Fold change /veh KRT8 (11758183_x_at) / RFU CNN1 (11734310_a_at) / Fold change /veh CNN1 (11734310_a_at) / RFU VPS37D (11726825_at) / Fold change /veh VPS37D (11726825_at) / RFU C10orf10 (11716522_x_at) / Fold change /veh C10orf10 (11716522_x_at) / RFU KIR2DL2 /// KIR2DL4 /// KIR2DL5A /// KIR2DL5B /// KIR2DS1 /// KIR2DS2 /// KIR2DS3 /// KIR2DS4 /// KIR3DL3 /// KIR3DL3 /// KIR3DS1 (11738374_at) / Fold change /veh KIR2DL2 /// KIR2DL4 /// KIR2DL5A /// KIR2DL5B /// KIR2DS1 /// KIR2DS2 /// KIR2DS3 /// KIR2DS4 /// KIR3DL3 /// KIR3DL3 /// KIR3DS1 (11738374_at) / RFU C1QL1 (11718748_at) / Fold change /veh C1QL1 (11718748_at) / RFU TMPRSS4 (11747572_a_at) / Fold change /veh TMPRSS4 (11747572_a_at) / RFU HAMP (11756126_x_at) / Fold change /veh HAMP (11756126_x_at) / RFU RNFT2 (11725882_a_at) / Fold change /veh RNFT2 (11725882_a_at) / RFU NR4A2 (11747474_a_at) / Fold change /veh NR4A2 (11747474_a_at) / RFU ABCC12 (11746883_a_at) / Fold change /veh ABCC12 (11746883_a_at) / RFU TMEM136 (11760407_x_at) / Fold change /veh TMEM136 (11760407_x_at) / RFU CLDN22 /// WWC2 (11732394_at) / Fold change /veh CLDN22 /// WWC2 (11732394_at) / RFU HLA-DPB1 (11760878_x_at) / Fold change /veh HLA-DPB1 (11760878_x_at) / RFU SPINT1 (11716480_a_at) / Fold change /veh SPINT1 (11716480_a_at) / RFU GAP43 (11754022_s_at) / Fold change /veh GAP43 (11754022_s_at) / RFU A4GNT (11735810_at) / Fold change /veh A4GNT (11735810_at) / RFU PRB3 (11715151_x_at) / Fold change /veh PRB3 (11715151_x_at) / RFU TUBB4B (11761932_at) / Fold change /veh TUBB4B (11761932_at) / RFU CAPN14 (11732068_a_at) / Fold change /veh CAPN14 (11732068_a_at) / RFU TMCC2 (11721928_a_at) / Fold change /veh TMCC2 (11721928_a_at) / RFU IRGQ (11745062_a_at) / Fold change /veh IRGQ (11745062_a_at) / RFU FAM174B (11720279_a_at) / Fold change /veh FAM174B (11720279_a_at) / RFU TMPRSS4 (11748680_a_at) / Fold change /veh TMPRSS4 (11748680_a_at) / RFU FAM212B (11763350_a_at) / Fold change /veh FAM212B (11763350_a_at) / RFU PLEKHG5 (11743358_a_at) / Fold change /veh PLEKHG5 (11743358_a_at) / RFU ZSCAN30 (11745921_a_at) / Fold change /veh ZSCAN30 (11745921_a_at) / RFU CMKLR1 (11741424_a_at) / Fold change /veh CMKLR1 (11741424_a_at) / RFU LOC101060620 /// MAPK8IP1 (11723275_at) / Fold change /veh LOC101060620 /// MAPK8IP1 (11723275_at) / RFU SPTSSB (11747773_x_at) / Fold change /veh SPTSSB (11747773_x_at) / RFU PRSS12 (11739890_at) / Fold change /veh PRSS12 (11739890_at) / RFU BIN1 (11741810_x_at) / Fold change /veh BIN1 (11741810_x_at) / RFU WNT11 (11732464_a_at) / Fold change /veh WNT11 (11732464_a_at) / RFU C10orf10 (11716521_a_at) / Fold change /veh C10orf10 (11716521_a_at) / RFU C5orf56 (11738089_at) / Fold change /veh C5orf56 (11738089_at) / RFU CYB561 (11721691_x_at) / Fold change /veh CYB561 (11721691_x_at) / RFU ANKRD19P (11752326_a_at) / Fold change /veh ANKRD19P (11752326_a_at) / RFU OR2T12 /// OR2T33 /// OR2T8 (11738714_s_at) / Fold change /veh OR2T12 /// OR2T33 /// OR2T8 (11738714_s_at) / RFU VCAN (11748164_a_at) / Fold change /veh VCAN (11748164_a_at) / RFU JSRP1 (11732532_at) / Fold change /veh JSRP1 (11732532_at) / RFU KRTAP10-11 (11738290_x_at) / Fold change /veh KRTAP10-11 (11738290_x_at) / RFU MYO3A (11730013_a_at) / Fold change /veh MYO3A (11730013_a_at) / RFU EBF3 (11725865_a_at) / Fold change /veh EBF3 (11725865_a_at) / RFU CAMK2N1 (11719241_x_at) / Fold change /veh CAMK2N1 (11719241_x_at) / RFU C5orf56 (11738088_a_at) / Fold change /veh C5orf56 (11738088_a_at) / RFU OLFML3 (11715873_a_at) / Fold change /veh OLFML3 (11715873_a_at) / RFU LOC100653217 /// NTM (11731650_a_at) / Fold change /veh LOC100653217 /// NTM (11731650_a_at) / RFU MAPK11 (11762145_a_at) / Fold change /veh MAPK11 (11762145_a_at) / RFU FIZ1 (11724087_x_at) / Fold change /veh FIZ1 (11724087_x_at) / RFU OASL (11726364_x_at) / Fold change /veh OASL (11726364_x_at) / RFU SOX15 (11748057_x_at) / Fold change /veh SOX15 (11748057_x_at) / RFU CD79A (11719716_a_at) / Fold change /veh CD79A (11719716_a_at) / RFU HIST1H1D (11736915_at) / Fold change /veh HIST1H1D (11736915_at) / RFU CASKIN2 (11723855_a_at) / Fold change /veh CASKIN2 (11723855_a_at) / RFU LOC730098 (11760151_x_at) / Fold change /veh LOC730098 (11760151_x_at) / RFU OR4N2 (11742367_at) / Fold change /veh OR4N2 (11742367_at) / RFU PRRT2 (11749266_a_at) / Fold change /veh PRRT2 (11749266_a_at) / RFU SNX32 (11753110_a_at) / Fold change /veh SNX32 (11753110_a_at) / RFU CDHR5 (11726645_a_at) / Fold change /veh CDHR5 (11726645_a_at) / RFU RCAN1 (11760418_a_at) / Fold change /veh RCAN1 (11760418_a_at) / RFU FAM167A (11723789_a_at) / Fold change /veh FAM167A (11723789_a_at) / RFU FAM26E (11764081_at) / Fold change /veh FAM26E (11764081_at) / RFU ISYNA1 (11749810_s_at) / Fold change /veh ISYNA1 (11749810_s_at) / RFU ACY1 (11761880_at) / Fold change /veh ACY1 (11761880_at) / RFU 11764098_at / Fold change /veh 11764098_at / RFU SAMD14 (11745864_x_at) / Fold change /veh SAMD14 (11745864_x_at) / RFU NPB (11741838_a_at) / Fold change /veh NPB (11741838_a_at) / RFU TMPRSS6 (11731388_a_at) / Fold change /veh TMPRSS6 (11731388_a_at) / RFU KRTAP10-2 (11738614_at) / Fold change /veh KRTAP10-2 (11738614_at) / RFU ARHGAP8 /// PRR5-ARHGAP8 (11727945_x_at) / Fold change /veh ARHGAP8 /// PRR5-ARHGAP8 (11727945_x_at) / RFU KRTAP5-7 /// NADSYN1 (11734609_at) / Fold change /veh KRTAP5-7 /// NADSYN1 (11734609_at) / RFU RASL12 (11751679_a_at) / Fold change /veh RASL12 (11751679_a_at) / RFU CDKN2B (11736163_a_at) / Fold change /veh CDKN2B (11736163_a_at) / RFU PRF1 (11729649_at) / Fold change /veh PRF1 (11729649_at) / RFU, ZNF638 /// ZNF638-IT1 / Fold change vs veh, ZNF638 /// ZNF638-IT1 / RFU, PANK3 / Fold change vs veh, PANK3 / RFU, SH3YL1 / Fold change vs veh, SH3YL1 / RFU, ZEB2 / Fold change vs veh, ZEB2 / RFU, NRIP1 / Fold change vs veh, NRIP1 / RFU, PTTG1IP / Fold change vs veh, PTTG1IP / RFU, CAPN2 / Fold change vs veh, CAPN2 / RFU, MED14 / Fold change vs veh, MED14 / RFU, SNORA58 / Fold change vs veh, SNORA58 / RFU, C1orf63 / Fold change vs veh, C1orf63 / RFU, LRRFIP1 / Fold change vs veh, LRRFIP1 / RFU, NDUFAF7 / Fold change vs veh, NDUFAF7 / RFU, SLC12A2 / Fold change vs veh, SLC12A2 / RFU, IBTK / Fold change vs veh, IBTK / RFU, ESF1 / Fold change vs veh, ESF1 / Fold change vs veh, TMEM50B / RFU, TAOK1 / Fold change vs veh, TAOK1 / RFU, ACBD3 / Fold change vs veh, ACBD3 / RFU, TMA16 / Fold change vs veh, TMA16 / RFU, RWDD3 / Fold change vs veh, RWDD3 / RFU, BCAT1 / Fold change vs veh, BCAT1 / RFU, EDEM3 / Fold change vs veh, EDEM3 / RFU, TMEM33 / Fold change vs veh, TMEM33 / RFU, WDR75 / Fold change vs veh, WDR75 / RFU, AHCTF1 / Fold change vs veh, AHCTF1 / RFU, TFRC / Fold change vs veh, TFRC / RFU, ZDHHC17 / Fold change vs veh, ZDHHC17 / RFU, NOM1 / Fold change vs veh, NOM1 / RFU, ARL8B / Fold change vs veh, ARL8B / RFU, ZBTB11 / Fold change vs veh, ZBTB11 / RFU, TAMM41 / Fold change vs veh, TAMM41 / RFU, KIAA1704 /// LOC100996395 / Fold change vs veh, KIAA1704 /// LOC100996395 / RFU, ING1 / Fold change vs veh, ING1 / RFU, TRMT61B / Fold change vs veh, TRMT61B / RFU, FUBP3 / Fold change vs veh, FUBP3 / RFU, TP53 / Fold change vs veh, TP53 / RFU, TNKS2 / Fold change vs veh, TNKS2 / RFU, ZFP14 / Fold change vs veh, ZFP14 / RFU, ACTR2 / Fold change vs veh, ACTR2 / RFU, PPP3R1 / Fold change vs veh, PPP3R1 / RFU, PIK3R1 / Fold change vs veh, PIK3R1 / RFU, HNRNPA1 / Fold change vs veh, HNRNPA1 / RFU, RNF170 / Fold change vs veh, RNF170 / RFU, ZNF28 / Fold change vs veh, ZNF28 / RFU, RNGTT / Fold change vs veh, RNGTT / RFU, OGT / Fold change vs veh, OGT / RFU, BRD1 / Fold change vs veh, BRD1 / RFU, MARS / Fold change vs veh, MARS / RFU, ZNF655 / Fold change vs veh, ZNF655 / RFU, FAHD1 / Fold change vs veh, FAHD1 / RFU, BDP1 / Fold change vs veh, BDP1 / RFU, LRRCC1 / Fold change vs veh, LRRCC1 / RFU, ARID1A / Fold change vs veh, ARID1A / RFU, ZNF146 / Fold change vs veh, ZNF146 / RFU, ZNF330 / Fold change vs veh, ZNF330 / RFU, GPN3 / Fold change vs veh, GPN3 / RFU, C9orf123 / Fold change vs veh, C9orf123 / RFU, N4BP2L2 / Fold change vs veh, N4BP2L2 / RFU, ARFIP1 / Fold change vs veh, ARFIP1 / RFU, FAM179B / Fold change vs veh, FAM179B / RFU, BCL10 / Fold change vs veh, BCL10 / RFU, UHRF1BP1L / Fold change vs veh, UHRF1BP1L / RFU, BET1 / Fold change vs veh, BET1 / RFU, CNOT2 / Fold change vs veh, CNOT2 / RFU, ZNF268 / Fold change vs veh, ZNF268 / Fold change vs veh, ZNF507 / RFU, DGCR2 / Fold change vs veh, DGCR2 / RFU, WDSUB1 / Fold change vs veh, WDSUB1 / Fold change vs veh, HSP90B1 /// MIR3652 / RFU, ADSS / Fold change vs veh, ADSS / RFU, GK / Fold change vs veh, GK / RFU, ZNF148 / Fold change vs veh, ZNF148 / RFU, TAF9 / Fold change vs veh, TAF9 / RFU, SLC1A5 / Fold change vs veh, SLC1A5 / RFU, SLMO2 / Fold change vs veh, SLMO2 / RFU, ABCC4 / Fold change vs veh, ABCC4 / RFU, LOC101060439 /// RAP1B / Fold change vs veh, LOC101060439 /// RAP1B / RFU, RFX7 / Fold change vs veh, RFX7 / RFU, GTPBP10 / Fold change vs veh, GTPBP10 / RFU, CNEP1R1 / Fold change vs veh, CNEP1R1 / RFU, BIVM-ERCC5 /// ERCC5 / Fold change vs veh, BIVM-ERCC5 /// ERCC5 / RFU, ILF3 / Fold change vs veh, ILF3 / RFU 11762660_at / Fold change /veh 11762660_at / RFU VCAN (11757783_s_at) / Fold change /veh VCAN (11757783_s_at) / RFU DDX43 (11728927_at) / Fold change /veh DDX43 (11728927_at) / RFU KRT8 (11758188_x_at) / Fold change /veh KRT8 (11758188_x_at) / RFU NKD1 (11759106_at) / Fold change /veh NKD1 (11759106_at) / RFU SRD5A1 (11742802_a_at) / Fold change /veh SRD5A1 (11742802_a_at) / RFU TPSAB1 /// TPSB2 (11721975_s_at) / Fold change /veh TPSAB1 /// TPSB2 (11721975_s_at) / RFU GSTM3 (11746129_a_at) / Fold change /veh GSTM3 (11746129_a_at) / RFU IL23R (11737362_x_at) / Fold change /veh IL23R (11737362_x_at) / RFU TMEM51 (11727254_a_at) / Fold change /veh TMEM51 (11727254_a_at) / RFU PIWIL2 (11732686_x_at) / Fold change /veh PIWIL2 (11732686_x_at) / RFU ORM1 (11744905_x_at) / Fold change /veh ORM1 (11744905_x_at) / RFU CCDC152 (11743942_at) / Fold change /veh CCDC152 (11743942_at) / RFU ECM1 (11717891_a_at) / Fold change /veh ECM1 (11717891_a_at) / RFU IL23R (11748794_a_at) / Fold change /veh IL23R (11748794_a_at) / RFU TNFAIP8L3 (11732012_x_at) / Fold change /veh TNFAIP8L3 (11732012_x_at) / RFU MBOAT4 (11741988_at) / Fold change /veh MBOAT4 (11741988_at) / RFU 11764193_at / Fold change /veh 11764193_at / RFU TMEM53 (11763286_at) / Fold change /veh TMEM53 (11763286_at) / RFU MAGEB2 (11727129_at) / Fold change /veh MAGEB2 (11727129_at) / RFU TMEM200A (11744735_a_at) / Fold change /veh TMEM200A (11744735_a_at) / RFU CCDC152 (11751479_a_at) / Fold change /veh CCDC152 (11751479_a_at) / RFU FAM211A (11726209_a_at) / Fold change /veh FAM211A (11726209_a_at) / RFU RGS16 (11746705_a_at) / Fold change /veh RGS16 (11746705_a_at) / RFU VCAN (11755009_s_at) / Fold change /veh VCAN (11755009_s_at) / RFU RHOB (11743442_s_at) / Fold change /veh RHOB (11743442_s_at) / RFU RGS16 (11720943_a_at) / Fold change /veh RGS16 (11720943_a_at) / RFU RGS16 (11720944_at) / Fold change /veh RGS16 (11720944_at) / RFU, VPS4B / Fold change vs veh, VPS4B / RFU, CREB1 / Fold change vs veh, CREB1 / RFU, DNAJC13 / Fold change vs veh, DNAJC13 / RFU, GNAQ / Fold change vs veh, GNAQ / RFU, CDK5R1 / Fold change vs veh, CDK5R1 / RFU, ZRANB3 / Fold change vs veh, ZRANB3 / RFU, CUL4A / Fold change vs veh, CUL4A / RFU, CCNY / Fold change vs veh, CCNY / RFU, UFL1 / Fold change vs veh, UFL1 / RFU, COG3 / Fold change vs veh, COG3 / RFU, DIAPH2 / Fold change vs veh, DIAPH2 / RFU, SKA2 / Fold change vs veh, SKA2 / RFU, AFF3 / Fold change vs veh, AFF3 / RFU, LMF1 / Fold change vs veh, LMF1 / RFU, IPO11 / Fold change vs veh, IPO11 / RFU, DFFB / Fold change vs veh, DFFB / RFU, FOXP1 / Fold change vs veh, FOXP1 / RFU, CARD8 / Fold change vs veh, CARD8 / RFU, STRN3 / Fold change vs veh, STRN3 / RFU, ADK / Fold change vs veh, ADK / RFU, RASSF2 / Fold change vs veh, RASSF2 / RFU, WIPF1 / Fold change vs veh, WIPF1 / RFU, LARP1B / Fold change vs veh, LARP1B / RFU, RASA1 / Fold change vs veh, RASA1 / RFU, RB1 / Fold change vs veh, RB1 / RFU, PPFIA1 / Fold change vs veh, PPFIA1 / RFU, MAT2A / Fold change vs veh, MAT2A / RFU, CCT5 / Fold change vs veh, CCT5 / RFU, WDR92 / Fold change vs veh, WDR92 / RFU, CUX1 / Fold change vs veh, CUX1 / RFU, TTC7A / Fold change vs veh, TTC7A / RFU, TMEM135 / Fold change vs veh, TMEM135 / RFU, DEPTOR / Fold change vs veh, DEPTOR / RFU, CPM / Fold change vs veh, CPM / RFU, DNAJB6 / Fold change vs veh, DNAJB6 / RFU, CACNA2D3 / Fold change vs veh, CACNA2D3 / RFU, DTX4 / Fold change vs veh, DTX4 / RFU, TFCP2 / Fold change vs veh, TFCP2 / RFU, GMCL1 /// GMCL1P1 / Fold change vs veh, GMCL1 /// GMCL1P1 / RFU, AEBP2 / Fold change vs veh, AEBP2 / RFU, SNHG1 /// SNORD22 /// SNORD25 /// SNORD26 /// SNORD27 /// SNORD28 /// SNORD29 /// SNORD31 / Fold change vs veh, SNHG1 /// SNORD22 /// SNORD25 /// SNORD26 /// SNORD27 /// SNORD28 /// SNORD29 /// SNORD31 / Fold change (Aza/veh), C12orf56 (ProbeSet 11735607_a_at) / Fold change (ACY-1035/veh), C12orf56 (ProbeSet 11735607_a_at) / Fold change (Aza/veh), FGFR1OP (ProbeSet 11751329_s_at) / Fold change (ACY-1035/veh), FGFR1OP (ProbeSet 11751329_s_at) / Fold change (Aza/veh), VPS36 (ProbeSet 11739960_a_at) / Fold change (ACY-1035/veh), VPS36 (ProbeSet 11739960_a_at) / RFU SYPL1 (11715823_x_at) / Fold change /veh SYPL1 (11715823_x_at) / RFU IGFBP7 (11715501_s_at) / Fold change /veh IGFBP7 (11715501_s_at) / RFU REEP3 (11722064_at) / Fold change /veh REEP3 (11722064_at) / RFU IGLL1 (11728026_x_at) / Fold change /veh IGLL1 (11728026_x_at): dose or concentration left out as unconfirmed
Conditions: ProbeSet 11716999_a_at; LIST D

Question: With `Nc1ncn([C@@H]2O[C@H](CO)[C@@H](O)[C@H]2O)c(=O)n1` [azacitidine] as the compound, how does the “Fold change vs veh, RASA1” value read?
Answer: 0.72
